Tested on: rice plants
Test: Safening of rice grown from treated seeds against clodinafop herbicide, greenhouse tray test
Format: in vivo
Conditions: rice seed treatment; for Av. shoot weight: average dry shoot weight five weeks after the clodinafop treatment; for Av. plant height: determined five weeks after the clodinafop treatment
Experimental: Various batches of treated rice seeds were sown in soil contained in trays (0.0425 m^2) at a rice density of 120 kg/ha and their growth monitored in a green house (at 25° C. during the day and 23° C. during the nght). The amounts of the active ingredients, i.e. thiamethoxam (Cruiser 350FS) and N-(2-methoxybenzoyl)-4-[(methylaminocarbonyl)amino]benzene-sulfonamide (safener) used for the rice seed treatment are indicated in the table below. The trays were flooded with water three days after sowing. Nine days after sowing the rice plants were sprayed with the herbicide clodinafop in an amount equal to 100 g/ha. The average plant height and the average dry shoot weight were determined five weeks after the clodinafop treatment.
A similar procedure was performed on untreated seeds except that the clodinafop treatment was omitted (control).
The same procedure as descrbed above was repeated except that the rice plants were treated with the herbicide clodinafop fifteen days after sowing.

[1] = clodinafop 100 g/ha sprayed 9 days after sowing
[2] = clodinafop 100 g/ha sprayed 15 days after sowing

SMILES	Av. shoot weight [1]	Av. plant height [1]	Av. shoot weight [2]	Av. plant height [2]
CNC(=O)Nc1ccc(S(=O)(=O)NC(=O)c2ccccc2OC)cc1 [C, N-(2-methoxybenzoyl)-4-[(methylaminocarbonyl)amino]benzene-sulfonamide]	300 mg	30 cm	510 mg	40 cm
CNC(=O)Nc1ccc(S(=O)(=O)NC(=O)c2ccccc2OC)cc1 [A, N-(2-methoxybenzoyl)-4-[(methylaminocarbonyl)amino]benzene-sulfonamide]	230 mg	24 cm	400 mg	35 cm

Reference: patent US20130225404A1, “PESTICIDAL COMBINATIONS” (SYNGENTA PARTICIPATIONS AG, priority 2010, published 2013)
